# Results reported in the SangsterLogP compilation.
# Test: method code SF, from DOI: 10.1021/jf00121a034
row,SMILES,logP
1,CON(C)C(=O)Nc1cccc(OCC(=O)C23CC4CC(CC(C4)C2)C3)c1,3.79
2,CON(C)C(=O)Nc1ccc(C=C(C#N)C#N)cc1,2.19
3,CON(C)C(=O)Nc1ccc(C(=O)c2ccccc2)cc1,2.86
4,CON(C)C(=O)Nc1ccc(OC(C)CC2CCCCC2)cc1 (configuration not stated),4.51
5,CON(C)C(=O)Nc1ccc(CCCCc2ccccc2)cc1,5.15
6,CCCCCCCCCCCCOc1ccc(NC(=O)N(C)C)cc1,6.93
7,CON(C)C(=O)Nc1ccc(OCCc2ccc(C)cc2)cc1,3.81
8,CC(C)c1ccc(NC(=O)N(C)C)cc1,2.87
9,CON(C)C(=O)Nc1cccc(OCCCCOc2ccccc2)c1,3.86
10,CON(C)C(=O)Nc1ccc(OCCCCOc2ccccc2)cc1,3.86
11,CON(C)C(=O)Nc1ccc(OCC(=O)C23CC4CC(C2)C4C3)c(Cl)c1 (configuration not stated),4.48
12,CON(C)C(=O)Nc1ccc(OCc2ccccc2)cc1,3.11
13,CON(C)C(=O)Nc1ccc(CCCc2ccccc2)cc1,4.67
14,CON(C)C(=O)Nc1ccc(CCCc2ccc(Cl)cc2)cc1,5.35
15,CON(C)C(=O)Nc1ccc(OCC(=O)C23CC4CC(CC(C4)C2)C3)cc1,3.53
16,CON(C)C(=O)Nc1ccc(OCCC2CCCCC2)cc1,4.46
17,CON(C)C(=O)Nc1ccc(OCCc2cccc3ccccc23)cc1,4.81
18,CON(C)C(=O)Nc1ccc(CCCc2ccc(-c3ccccc3)cc2)cc1,6.54

# Next, values leading:
row,logP,SMILES
1,0.51,CN(C)C(=O)Nc1cccc(O)c1
2,2.59,CN(C)C(=O)Nc1ccc(C(=O)c2ccccc2)cc1
3,1.64,CON(C)C(=O)Nc1cccc([N+](=O)[O-])c1
4,1.46,CN(C)C(=O)Nc1cccc([N+](=O)[O-])c1
5,1.22,CON(C)C(=O)Nc1ccc(C(C)=O)cc1
6,1.29,CON(C)C(=O)Nc1ccccc1
7,2.64,CON(C)C(=O)Nc1cccc(C(F)(F)F)c1
8,3.23,CCCCc1cccc(NC(=O)N(C)C)c1
9,2.95,CON(C)C(=O)Nc1ccc(C(C)C)cc1
10,0.62,CON(C)C(=O)Nc1cccc(CO)c1
11,0.83,CCNc1ccc(NC(=O)N(C)OC)cc1
12,1.46,CON(C)C(=O)Nc1ccc(F)cc1
13,0.82,CON(C)C(=O)Nc1cccc(O)c1
14,4.08,CON(C)C(=O)Nc1ccc(C2CCCCC2)cc1
15,0.14,CON(C)C(=O)Nc1ccc(NS(C)(=O)=O)cc1
16,3.21,CON(C)C(=O)Nc1cccc(C(C)(C)C)c1
17,3.83,CN(C)C(=O)Nc1ccc(C2CCCCC2)cc1
18,1.68,CON(C)C(=O)Nc1cccc(F)c1
19,1.74,CON(C)C(=O)Nc1ccc([N+](=O)[O-])cc1
20,-0.16,CON(C)C(=O)Nc1ccc(N)cc1
21,0.95,CC(=O)c1cccc(NC(=O)N(C)C)c1
22,-0.1,CN(C)C(=O)Nc1cccc(N)c1
23,2.24,CCOC(=O)c1ccc(NC(=O)N(C)OC)cc1
24,3.39,CN(C)C(=O)Nc1cccc(OCCc2ccccc2)c1
